Experimental data reported in publication PMC8745253, “Affinity and Specificity for Binding to Glycosaminoglycans Can Be Tuned by Adapting Peptide Length and Sequence” (International Journal of Molecular Sciences, 2021).

What was measured:
[1] = cited from earlier work
Source text: (§1) Chemokines are small proteins that have two main interaction partners: chemokine receptors, which are G protein-coupled receptors (GPCRs), and GAGs. The binding of chemokines to GAGs enables the formation of a chemokine concentration gradient, which is indispensable for leukocyte migration. Interfering with the interactions between GAGs and chemokines can be a useful therapeutic strategy to inhibit inflammation. The chemokine CXCL9 binds to CXCR3 and is characterized by a highly positively charged COOH-terminal tail. A CXCL9-derived peptide, CXCL9(74-103), consisting ...

[2] = system: cellular GAGs on HS+ (pgsB-618 clone 19) and HS- (pgsB-618 clone 16) CHO cells; test: Binding of TAMRA-labeled peptides to cellular GAGs, flow cytometry; format: cell-based, Chinese hamster; conditions: 0.24 nmol TAMRA-labeled peptide; for Binding to HS+ CHO cells compared with HS- CHO cells (MFI): 1 × 10^5 cells, 30 min on ice, Wilcoxon test; for Binding capacity for cellular GAGs (MFI ([HS+]–[HS−])), comparison of the peptides: n ≥ 7, Mann–Whitney test
Description: The binding of four different TAMRA-labeled peptides (KKAK-2mer, KKQK-3mer, KKKQQK-2mer and CXCL9(74-103)) to cellular GAGs on pgsB-618 clone 16 (HS^− CHO cells) and pgsB-618 clone 19 cells (HS^+ CHO cells) was assessed using flow cytometry. Since each peptide contains exactly one TAMRA-group connected to the N-terminus, this allows us to quantify the peptides by their fluorescence or absorbance.
(§2) First, the medium was discarded, the cells were washed with PBS and were detached with trypsin/EDTA at 37 °C. Subsequently, the cells were resuspended in medium and left at room temperature for 45 min, and afterwards on ice for 15 min. After centrifugation at 177 g and 4 °C for 7 min, the pellet was resuspended in PBS and the cells were kept on ice. For each condition, 1 × 10^5 cells in 100 μL PBS were used and 4.7% (v/v) FcR blocking reagent and 0.06% (v/v) Zombie Aqua fixable viability dye were added to the cells. Following incubation in the dark at room temperature for 20 min, a wash step with flow cytometry buffer was performed. Afterwards, 0.24 nmol TAMRA-labeled peptide was added to the cells. After incubation in the dark on ice for 30 min, a wash step with flow cytometry buffer was performed and, subsequently, the cells were fixed with 0.4% (v/v) formaldehyde in flow cytometry buffer and kept at 4 °C. Flow cytometric analysis was performed within the following 24 h using a BD LSRFortessa X-20 flow cytometer (BD Biosciences; Franklin Lakes, NJ, USA), and the results were analyzed using FlowJo software (BD Biosciences).
(§3) Flow cytometry data (Figure 7C and Figure S2) are represented as median. […] In the next step, either a Mann–Whitney test (for unpaired data) or a Wilcoxon test (for paired data) was used to compare the groups. Statistical analysis was performed using GraphPad Prism 8.3.0 software (GraphPad Software; San Diego, CA, USA).

[3] = system: cellular GAGs on HS+ and HS- CHO cells; test: Binding of TAMRA-labeled peptides to cellular GAGs in the presence of added soluble GAGs, flow cytometry; format: cell-based, Chinese hamster; conditions: versus no GAG, Kruskal–Wallis test, n ≥ 6; for Effect of added soluble HA on binding of the peptide to cellular GAGs (MFI ([HS+]–[HS−])): 0.24 nmol peptide with 0.03-3 μg HA (70–120 kDa); for Effect of added soluble HS on binding of the peptide to cellular GAGs (MFI ([HS+]–[HS−])): 0.24 nmol peptide with 0.03-3 μg HS; for Effect of added soluble heparin on binding of the peptide to cellular GAGs (MFI ([HS+]–[HS−])): 0.24 nmol peptide with 0.03-3 μg heparin
Description: as §2
Similarly, the binding of three TAMRA-labeled peptides (KKQK-3mer, KKKQQK-2mer and CXCL9(74-103)) to cellular GAGs on pgsB-618 clone 16 (HS^− CHO cells) and pgsB-618 clone 19 cells (HS^+ CHO cells) in the presence of added GAGs was assessed using flow cytometry. In this experiment, different doses (0.03, 0.1, 0.3, 1 or 3 μg) of heparin (heparin low in calcium; Iduron; Cheshire, UK), HS (GAG HS01 BN1; Iduron; Cheshire, UK) or HA (70–120 kDa; HA sodium salt 96144; Sigma-Aldrich; St. Louis, MO, USA) were added to the cells, simultaneously with 0.24 nmol of TAMRA-labeled peptide (vide supra).
as §3

CXCR3 = conditions: cited from earlier work
Source text: as §1

[4] = cited from earlier work; remark: listed apart in the source
Source text: No significant difference in affinity for HS was detected between the long (KKKQQK) and short (KKQK) GAG-binding motifs (Figure 2). […] This is consistent with the report that peptides containing multiple copies of the GAG-binding motifs XBBXBX and XBBBXXBX had higher affinity for heparin [30]. It is important to point out that CXCL9(74-103) had the ...

Compound	Binding to HS+ CHO cells compared with HS- CHO cells (MFI) [2]	Binding capacity for cellular GAGs (MFI ([HS+]–[HS−])), comparison of the peptides [2]	Effect of added soluble HA on binding of the peptide to cellular GAGs (MFI ([HS+]–[HS−])) [3]	Effect of added soluble HS on binding of the peptide to cellular GAGs (MFI ([HS+]–[HS−])) [3]	Effect of added soluble heparin on binding of the peptide to cellular GAGs (MFI ([HS+]–[HS−])) [3]	other results
CC(=O)NC(CCCNC(=N)N)C(N)=O (stereo not drawn) [acetyl-Arg-amide]						Tighter binding to heparin than the corresponding acetyl-Lys-amide [1]: approximately 2.5 times
* KKAKASASKKAKTT [KKAK-2mer]	bound significantly better to HS^+ CHO cells	lowest				
* KKKQKNGKKHQKKKVLKVRKSQRSRQKKTT [CXCL9(74-103), chemokine-derived peptide, the 30 COOH-terminal amino acids of the chemokine CXCL9, TAMRA-labeled]	bound significantly better to HS^+ CHO cells	significantly higher (p < 0.0001) compared with that of the three other peptides	no significant differences	statistically significant reduction of binding	statistically significant reduction of binding	Binding to and signaling through CXCR3 (CXCR3): lacks the capacity to bind to, and signal through, CXCR3
* KKKQQKQSQSKKKQQKTT [KKKQQK-2mer]	bound significantly better to HS^+ CHO cells	significantly higher (p < 0.05) in comparison with the binding capacity of the KKAK-2mer	no significant differences	no significant differences	no significant differences	
* KKQKQSQSKKQKQSQSKKQKTT [KKQK-3mer]	bound significantly better to HS^+ CHO cells	significantly higher (p < 0.05) in comparison with the binding capacity of the KKAK-2mer	no significant differences	no significant differences	no significant differences	
AAARRARAAAARAKA [modified serglycin peptide in which Ala residues replaced all non-basic amino acids]						Decrease in heparin-binding affinity compared with native peptide YPARRARYQWVRCKP ([4]; Ala residues replaced all non-basic amino acids): 350 fold
YPARRARYQWVRCKP						Heparin-binding affinity ([4]; fragment of native mouse serglycin core protein with BBXB motif): significant heparin-binding affinity
